Measurements from ChEMBL document CHEMBL4052762, “Synthesis and biological evaluation of pyrrole-based chalcones as CYP1 enzyme inhibitors, for possible prevention of cancer and overcoming cisplatin resistance” (Bioorg Med Chem Lett, 2017).

Target: T1, Cytochrome P450 1B1 (Homo sapiens, UniProt Q16678)
T1 sequence (Q16678 whole entry): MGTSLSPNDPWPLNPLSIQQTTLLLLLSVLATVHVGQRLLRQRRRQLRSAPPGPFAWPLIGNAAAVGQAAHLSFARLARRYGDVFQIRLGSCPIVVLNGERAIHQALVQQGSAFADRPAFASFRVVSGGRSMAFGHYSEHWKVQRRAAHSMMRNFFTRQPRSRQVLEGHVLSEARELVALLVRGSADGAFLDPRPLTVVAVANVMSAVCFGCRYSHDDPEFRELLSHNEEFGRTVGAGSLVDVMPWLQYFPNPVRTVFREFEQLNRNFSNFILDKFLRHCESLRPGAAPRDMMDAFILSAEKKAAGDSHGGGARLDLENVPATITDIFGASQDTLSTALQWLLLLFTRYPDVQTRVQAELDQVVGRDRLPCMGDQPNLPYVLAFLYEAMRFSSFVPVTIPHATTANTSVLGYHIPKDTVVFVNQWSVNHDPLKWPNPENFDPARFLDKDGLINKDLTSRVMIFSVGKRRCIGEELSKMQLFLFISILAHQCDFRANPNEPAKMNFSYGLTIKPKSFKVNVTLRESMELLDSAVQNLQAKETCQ
Experiment: Inhibition of human CYP1B1 transfected in HEK293 cells assessed as reduction in cisplatin EC50 at 20 uM by MTT assay
Assay type: cell-based
Settings: hek293, 20 µM; call rule not given here

inhibition (INH): Not Active
SMILES: O=C(/C=C/c1ccc(OC(F)(F)F)cc1)c1ccc[nH]1
